Source: patent US20250339567A1, “COMPOUNDS WITH IMPROVED PHARMACOKINETICS FOR IMAGING AND THERAPY OF CANCER” (priority 2019, published 2025)
Read-outs that look alike come from different tables or passages of the source.

Columns and labels:
[1] = Plasma studies: metabolic stability in vitro in human plasma (radio RP-HPLC); assay type: in vitro ADME
Outline: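 Radiotracer incubated in human or murine plasma at 37° C. immediately after labeling, for 72±2 h or 6±0.5 h. Proteins precipitated with ice-cold EtOH and MeCN and centrifuged. Supernatant analysed by radio RP-HPLC.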

[2] = n-Octanol-PBS distribution coefficient, log D7.4; assay type: physicochemical; conditions: 177Lu-labeled ligand; n-octanol/PBS pH 7.4
Experimental: Approximately 1 MBq of the labeled tracer was dissolved in 1 mL of a 1:1 mixture (v/v) of phosphate buffered saline (PBS, pH=7.4) and n-octanol in an Eppendorf tube. After vigorous mixing of the suspension for 3 min at room temperature, the vial was centrifuged at 9000 rpm for 5 min (Biofuge 15, Heraus Sepatech, Osterode, Germany) and 200 μL aliquots of both layers were measured in a γ-counter. The experiment was repeated at least four times.

[3] = tested on: PC-3 tumor-bearing CB17-SCID mice; conditions: mouse, in vivo
Experimental: (§1) All animal experiments were conducted in accordance with general animal welfare regulations in Germany (German animal protection act, as amended on 18 May 2018, Art. 141 G v. 29.3.2017 | 626, approval no. ROB-55.2-2532.Vet_02-18-109) and the institutional guidelines for the care and use of animals. To establish tumor xenografts, PC-3 cells (5×10^6 cells per 200 μL) were suspended in a 1:1 mixture (v/v) of Dulbecco's modified eagle's medium/Ham's F-12 (DMEM/F-12) with Glutamax-I (1:1) and Cultrex® Basement Membrane Matrix Type 3 (Trevigen Inc., Gaithersburg, MD, USA) and inoculated subcutaneously onto the right shoulder of 6-10 weeks old female CB17-SCID mice (Charles River Laboratories International Inc., Sulzfeld, Germany). Mice were used for experiments when tumor volume was 125-500 mm^3 (2-3 weeks after inoculation).
Imaging studies were performed at a MILabs VECTor^4 small-animal SPECT/PET/OI/CT device (MILabs, Utrecht, the Netherlands). Data were reconstructed using the MILabs Rec software (version 10.02) and a pixel-based Similarity-Regulated Ordered Subsets Expectation Maximization (SROSEM) algorithm, followed by data analysis using the PMOD4.0 software (PMOD TECHNOLOGIES LLC, Zurich, Switzerland). […] Static images were recorded within 1 and 28 h p.i. with an acquisition time of 45-60 min using the HE-GP-RM collimator and a step-wise multi-planar bed movement.

[4] = tested on: PC-3 tumor-bearing CB17-SCID mice; experiment: Biodistribution in PC-3 tumor-bearing CB17-SCID mice; assay type: in vivo; conditions: 177Lu-labeled, 24 h p.i.
Experimental: as §1
Approximately 1-5 MBq ([…]) of the radiolabeled GRPR antagonists were injected into the tail vein of PC-3 tumor-bearing mice and sacrificed at 1, 4 or 24 h p.i. (n=4). Selected organs were removed, weighted and measured in a γ-counter (Perkin Elmer, Waltham, MA, USA).

[5] = tested on: PC-3 cells; experiment: Internalization into PC-3 cells; assay type: cell-based; conditions: c = 1 nM, 1 h, 37° C., corrected for non-specific binding (10^-3 M [natLu]RM2)
Experimental: For internalization studies, PC-3 cells are harvested 24±2 h before the experiment and seeded in 24-well plates (1.5×10^5 cells/well, 1 mL). Subsequent to the removal of the culture medium, the cells are washed once with 500 μL DMEM/F-12 (5% BSA) and left to equilibrate at 37° C. for at least 15 min in 200 μL DMEM/F-12 (5% BSA). […] Next, 25 μL of the ^125I/^177Lu-labeled GRPR ligand (10 nm) is added and the cells are incubated at 37° C. for 60 min.
The experiment is terminated by placing the 24-well plate on ice for 1 min and consecutive removal of the medium. Each well is rinsed with 300 μL ice-cold PBS and the fractions from these first two steps are combined, representing the amount of free radiolabeled reference. Removal of surface bound activity is accomplished by incubation of the cells with 300 μL of ice-cold Acid Wash solution (0.02 M NaOAc, pH=5.0) for 10 min at room temperature and rinsed again with 300 μL of ice-cold PBS. The internalized activity is determined by incubation of the cells in […] NaOH (1 M) and the combination with the fraction of a subsequent washing step with 300 μL NaOH (1 M).
Each experiment (control and blockade) is performed sixfold. Free, surface bound and internalized activity is quantified in a γ-counter. Data is corrected for non-specific internalization.

[6] = target: T1, GRPR (Homo sapiens, UniProt P30550); experiment: Determination of GRPR affinity (IC50), competition with [D-3-[125I]I-Tyr6]MJ9 on PC-3 cells; assay type: binding
T1 construct: endogenous in cells; host or cells: PC-3 cells
T1 sequence (P30550 whole entry): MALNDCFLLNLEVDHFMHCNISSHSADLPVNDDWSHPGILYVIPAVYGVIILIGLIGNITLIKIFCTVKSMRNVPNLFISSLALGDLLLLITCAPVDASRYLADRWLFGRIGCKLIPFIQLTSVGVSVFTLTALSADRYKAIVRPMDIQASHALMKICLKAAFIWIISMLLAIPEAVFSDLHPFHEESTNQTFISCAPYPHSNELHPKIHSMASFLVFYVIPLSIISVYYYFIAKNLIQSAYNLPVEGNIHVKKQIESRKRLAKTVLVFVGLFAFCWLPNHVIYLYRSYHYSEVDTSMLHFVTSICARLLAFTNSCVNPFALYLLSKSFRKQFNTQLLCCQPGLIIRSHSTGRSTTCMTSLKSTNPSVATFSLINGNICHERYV

Row | Amount of intact tracer after incubation in human plasma for 72 ± 2 h (n = 2) [1] | metabolite, first-eluting peak in chromatogram [1] [%] | metabolite, second peak in chromatogram [1] [%] | remaining intact tracer in chromatogram ([1]; human, plasma, 2 h) [%] | clearance of background activity in imaging [3] | Structure (SMILES) | log D7.4 ± SD (n = 8) [2] | Amount of intact tracer after incubation in human plasma for 72 ± 2 h (n = 2) ([1]; Table 1C, 177Lu-labeled, 37° C., 72 ± 2 h, in % (unit assumed)) | amount of intact tracer (in vitro stability), mean ± SD ([1]; human plasma, 37° C., 72±2 h) [%] | pancreas retention ([4]; 100 pmol, FIG. 11) | tumor retention ([4]; 100 pmol, FIGS. 11, 18) | tumor-to-background ratios (tumor-to-blood, tumor-to-muscle) ([4]; FIG. 12) | Specific internalization (mean ± SD, n = 6) [5] | IC50 ([6]; IC50 [nM] ± SD (n = 3), ^177Lu-labeled, Table 1C, GRPR affinity) [nM] | IC50 ([6]; IC50 ± SD (n = 3), Table 3, [D-3-[125I]I-Tyr6]MJ9 (c = 0.2 nM), 2 h, r.t., HBSS + 1% BSA) [nM]
1 | 77.6 ± 10.1 | 2 | 5 | 92 | cleared less rapid | CC(C)C[C@H](NC(=O)C[C@H](O)[C@H](CC(C)C)NC(=O)[C@H](Cc1c[nH]cn1)NC(=O)CNC(=O)[C@@H](NC(=O)[C@H](C)NC(=O)[C@](C)(Cc1c[nH]c2ccccc12)NC(=O)[C@H](CCC(N)=O)NC(=O)[C@@H](Cc1ccccc1)NC(=O)CN1CCC(NC(=O)CN2CCN(CC(=O)O)CCN(CC(=O)O)CCN(CC(=O)O)CC2)CC1)C(C)C)C(N)=O [AMTG] | −2.28 ± 0.06 | – | – | – | – | – | – | – | –
2 | – | – | – | – | – | CC(C)CC(CC(C)C)NC(=O)[C@H](Cc1cnc[nH]1)NC(=O)CNC(=O)[C@@H](NC(=O)[C@H](C)NC(=O)[C@H](Cc1c[nH]c2ccccc12)NC(=O)[C@H](CCC(N)=O)NC(=O)[C@@H](Cc1ccccc1)NC(=O)COCC(=O)Nc1ccc(CNC(=O)CN2CCN(CC(=O)O)CCN(CC(=O)O)CCN(CC(=O)O)CC2)cc1)C(C)C [NeoBOMB1, reference compound] | −0.57 ± 0.03 | 60.8 ± 1.2 | 60.8±1.2 | high pancreas retention | high tumor retention | minor tumor-to-background ratios than the reference | 13.91 ± 0.64 % of the used activity | 4.2 ± 0.1 | 4.22 ± 0.14
